Test results as given in publication PMC6493465 (Oncotarget, 2019).

Tests used:
MOLM-13 cells [1] = assay: Annexin-V staining (apoptosis), MOLM-13; assay type: cell-based, human; conditions: 48 hours; for percentage of annexin V-positive cells: control 4.1%
Description: MV4-11 cells were seeded in 12-well plates at a concentration of 2 × 10^5 cells/well and cultured overnight. […] MOLM-13 cells were seeded in 12-well plates at a concentration of 1 × 10^5 cells/well and cultured overnight.
Cells were harvested and incubated with Guava® Nexin Reagent (Merck Millipore Corporation, Billerica, MA). Annexin-V-positive cells were assessed using a Guava® PCA microcytometer (Merck Millipore Corporation); the percentage of annexin-V-positive cells (2000 cells per sample) was analyzed using CytoSoft™ software (Merck Millipore Corporation). Mean percentages of annexin-V-positive cells were derived from three independent experiments.

[2] = system: MCL-1, BCL2L10, survivin and cPARP in MV4-11 cells; assay: Western blot analysis of anti-apoptotic protein expression, MV4-11; assay type: cell-based, human; conditions: MV4-11, 24-hour treatment; gilteritinib 10 nM, AraC 1000 nM, DNR 6 nM, IDR 1 nM and 2 nM, Aza 1000 nM
Description: (§1) Cell lysates were prepared in radioimmunoprecipitation assay buffer (Thermo Fisher Scientific Inc., Rockford, IL) supplemented with phosphatase (Thermo Fisher Scientific Inc.) and protease inhibitors (Merck, Billerica, MA), electrophoresed on 4%–15% gels, and subsequently transferred to polyvinylidene difluoride membranes. The membranes were blocked using Blocking One (Nacalai Tesque Inc., Kyoto, Japan) for 1 hour and then incubated overnight with primary antibodies to MCL-1, BCL210, cPARP (all from Cell Signaling Technology, Danvers, MA, USA), survivin (R&D Systems, Inc., Minneapolis, MN), and α-actin (MilliporeSigma, Burlington, MA). The membranes were washed with TBS Tween-20 (TBS-T) buffer and incubated with appropriate horseradish peroxidase-linked secondary antibodies (Cell Signaling Technology Japan K.K.) for 1 hour at room temperature. After washing the membranes in TBS-T buffer, enhanced chemiluminescence Western Blotting Detection Reagent ECL-prime (GE Healthcare, Fairfield, CT) was applied. Signals were detected with a charge-coupled device camera (ImageQuant LAS4000; GE Healthcare); signal intensity was quantified using ImageQuant™ TL software (GE Healthcare).

[3] = system: MCL-1, BCL2L10, survivin and cPARP in MOLM-13 cells; assay: Western blot analysis of anti-apoptotic protein expression, MOLM-13; assay type: cell-based, human; conditions: MOLM-13, 24-hour treatment; gilteritinib 30 nM, AraC 100 nM, IDR 3 nM, Aza 1000 nM
Description: as §1

MV4-11 cells = assay: Antitumor effects in mice xenografted with MV4-11 cells; assay type: in vivo, mouse; conditions: MV4-11 xenograft; for Regression of Tumor / Inhibition of Tumor Growth: Day 21
Description: (§2) Four or five-week-old male nude mice (CanN.Cg-Foxn1nu/Crl/Crlj[nu/nu]; Charles River Laboratories Japan, Inc., Kanagawa, Japan) were maintained under specific pathogen-free conditions and received a standard diet and water supply throughout the study. All animal experimental procedures were performed in accordance with the Animal Ethics Committee of Astellas Pharma, Inc. For in vivo experiments, suspensions of MV4-11 and MOLM-13 cells in PBS at a concentration of 1 × 10^8 cells/mL were mixed with an equivalent volume of Matrigel® Basement Membrane Matrix, resulting in a final cell concentration of 5 × 10^7 cells/mL. The cells were subcutaneously injected into the flanks of mice at a concentration of 5 × 10^6 cells/0.1 mL/mouse. After tumor establishment, mice were divided into groups with similar mean tumor volume across groups.
(§3) Dosing volumes were 10 mL/kg for oral and intraperitoneal (IP) administration, and 5 or 10 mL/kg for intravenous (IV) administration. Treatment was administered once daily on designated days. The first day of treatment was designated as Day 0 and observation continued until Day 20 or 21 for mice xenografted with MV4-11 cells and Day 16 for mice xenografted with MOLM-13 cells. In mice xenografted with MV4-11 cells for experiments involving triple combination treatment, the control group received oral administration of vehicle (0.5% methylcellulose, Days 0–20), IP administration of vehicle (saline, Days 0–4), and IV administration of vehicle (saline, Days 0–2).
The AraC/DNR group received oral vehicle (0.5% methylcellulose, Days 0–20), IP AraC (50 mg/kg/day, Days 0–4), and IV DNR (2 mg/kg/day, Days 0–2). The AraC/IDR group received vehicle (Days 0–20), IP AraC (50 mg/kg/day, Days 0–4), and IV IDR (0.5 mg/kg/day, Days 0–2). […] For experiments involving Aza, the control group received oral vehicle (0.5% methylcellulose, Days 0–20) and IV vehicle (saline, Days 0–4). The Aza group received oral vehicle (0.5% methylcellulose, Days 0–20) and IV Aza (3 mg/kg/day, Days 0–4). […] For mice that received chemotherapy only, administration schedules for each agent were the same as those described in the triple combination groups.
(§4) Mice with established tumors were selected and divided into groups on Day −1 or Day 0, so that the mean tumor volumes were similar across groups. Body weights and tumor volumes assessed on Day −1 were designated as Day 0 values. Body weight and tumor diameter were measured for each experimental group; antitumor activity was expressed as the percent inhibition of tumor growth and the percent of tumor regression (further details are outlined in the Supplementary Materials). […] Complete regression was defined as no palpable or observable tumor. […]
Tumor evaluation 100 × (1 – [mean tumor volume of each group on the last day of observation] / [mean tumor volume of each
Body weight and tumor diameter were measured group on Day 0]) in xenografted nude mice xenografted with MV4-11 cells on the indicated days for each experimental group: 1. Treatments for pharmacokinetic assays […]
and 21. Body weight and tumor assessments obtained on with MV4-11 cells received one of the following Day −1 were designated as Day 0 (baseline) measurements. combination treatments: 1.
(§5) Tumor diameter was measured using a caliper and tumor 0.5% methylcellulose); 2. Oral methylcellulose (0.5%) in volume was determined by calculating the volume of an combination with IV IDR (0.5 mg/kg) and IP AraC (50 ellipsoid (ie, Length × Width2 × 0.5). The percent inhibition mg/kg); 3. […]
of tumor growth was calculated using the formula: kg) and IP AraC (50 mg/kg). For combination PK assays […]
on the last day of observation) – (tumor volume of each with MV4-11 received one of the following: […]
of each mouse on the last day of observation) – (tumor methylcellulose (0.5%) plus IV Aza (3 mg/kg); 3. Oral […]
(§6) The percent tumor regression was calculated using […]

MOLM-13 cells [4] = assay: Antitumor effects in mice xenografted with MOLM-13 cells; assay type: in vivo, mouse; conditions: MOLM-13 xenograft
Description: as §2, §3, §4
www.oncotarget.com Oncotarget, Supplementary Materials […]
Body weight and tumor diameter were measured group on Day 0]) in xenografted nude mice xenografted with MV4-11 cells on the indicated days for each experimental group: 1. […]
as §5
of tumor growth was calculated using the formula: kg) and IP AraC (50 mg/kg). […]
as §6

[5] = Aza experiment: oral gilteritinib 3 mg/kg/day Days 0-20, IV Aza 3 mg/kg/day Days 0-4
[6] = table title day 21, Aza experiment: oral gilteritinib 30 mg/kg/day Days 0-16, IV Aza 3 mg/kg/day Days 0-4

Row | Compound | mean percentage of annexin V-positive cells (MOLM-13 cells [1]; single agent: IDR 3 nM, AraC 100 nM or Aza 1000 nM) [%] | expression of MCL-1, BCL2L10, and survivin [2] | expression of MCL-1, BCL2L10, and survivin [3] | body weight on Day 21 between control and treatment groups (MV4-11 cells) | Regression of Tumor (MV4-11 cells; Aza experiment) [%] | Inhibition of Tumor Growth (MV4-11 cells; [5]) [%] | Inhibition of Tumor Growth (MOLM-13 cells [4]; [6]) [%] | percentage of annexin V-positive cells (MOLM-13 cells [1]; gilteritinib alone 30 nM) [%] | percentage of annexin V-positive cells (MOLM-13 cells [1]; gilteritinib alone 100 nM) [%] | Regression of Tumor (MV4-11 cells; AraC/DNR experiment) [%] | Inhibition of Tumor Growth (MV4-11 cells; AraC/DNR experiment: oral gilteritinib 3 mg/kg/day Days 0-20, IP AraC 50 mg/kg/day Days 0-4, IV DNR 2 mg/kg/day Days 0-2) [%] | Regression of Tumor (MV4-11 cells; AraC/IDR experiment) [%] | Inhibition of Tumor Growth (MV4-11 cells; AraC/IDR experiment: oral gilteritinib 3 mg/kg/day Days 0-20, IP AraC 50 mg/kg/day Days 0-4, IV IDR 0.5 mg/kg/day Days 0-2) [%] | mean (±SEM) tumor weight on Day 21 (MV4-11 cells; AraC/DNR experiment, control 1.234±0.150 g) [g] | mean tumor weight on Day 21 (MV4-11 cells; AraC/IDR experiment, control 1.64±0.12 g) [g] | Inhibition of Tumor Growth (MOLM-13 cells [4]; by Day 16, gilteritinib 30 mg/kg alone (both experiments)) [%] | Inhibition of Tumor Growth (MOLM-13 cells [4]; table title day 21, AraC/IDR experiment: oral gilteritinib 30 mg/kg/day Days 0-15, IP AraC 50 mg/kg/day Days 0-4, IV IDR 0.5 mg/kg/day Days 0-2) [%]
1 | Nc1ncn([C@@H]2O[C@H](CO)[C@@H](O)[C@H]2O)c(=O)n1 [Aza, Azacitidine] | 21.9 | no change | little effect | No significant differences | 0 | 5 | 37 |  |  |  |  |  |  |  |  |  | 
2 | CCc1nc(C(N)=O)c(Nc2ccc(N3CCC(N4CCN(C)CC4)CC3)c(OC)c2)nc1NC1CCOCC1 [Gilteritinib] |  | inhibited the expression | strongly inhibited | No significant differences | 0 | 71 | 90 | 32.0 | 52.4 | 0 | 78 | 0 | 85 | 0.441 ± 0.076 | 0.53 ± 0.09 | ≥ 90 | 93
